From patent US7005447B2, “Food product comprising hydroxymatairesinol” (Hormos Nutraceutical Oy Ltd., priority 1999, dated 2006)
Where two headings read alike, the source gives them in different places.

Experiments:
[1] = tested on: tert-butylhydroperoxide-induced lipid peroxidation (t-BuOOH-LP) in rat liver microsomes; experiment: Inhibition of tert-butylhydroperoxide-induced lipid peroxidation (t-BuOOH-LP), chemiluminescence; type: biochemical
Method: Inhibition of lipid peroxidation was evaluated on the basis of their potency to inhibit tert-butylhydroperoxide-induced lipid peroxidation (t-BuOOH-LP) in rat liver microsomes in vitro (Ahotupa et al. 1997). The test for the t-BuOOH-LP was carried out as follows: The buffer (50 mM sodium carbonate, pH 10.2, with 0.1 mM EDTA) was pipetted in a volume of 0.8 ml in the luminometer cuvette. Twenty microliters of diluted liver microsomes, final concentration 1.5 mg protein/ml, was added, followed by […] of luminol (0.5 mg/ml) and test chemicals. The test compounds were added to incubation mixtures in a small volume diluted in ethanol or dimethylsulphoxide (2% of incubation volume), and the lipid peroxidation potency was compared to that of the vehicle (ethanol or dimethyl sulphoxide). The reaction was initiated by 0.05 ml of 0.9 mM t-BuOOH at 33° C. Chemiluminescence was measured for about 45 min at 1 min cycles, and the area under curve (integral) was calculated. Chemiluminescence measurements were carried out using a Bio-Orbit 1251 Luminometer (Bio-Orbit, Turku, Finland) connected to a personal computer using dedicated software for the assays.

[2] = Superoxide anion scavenging (xanthine-xanthine oxidase system, chemiluminescence); type: biochemical; settings: read-out: Superoxide anion scavenging, IC-50
Method: Superoxide anion scavenging method was based on the superoxide anion produced in controlled conditions by xanthine-xanthine oxidase system and detection of the generated reactive oxygen species by luminometer (Ahotupa et al., 1997). The ability of test compounds to decrease the chemiluminescence was evaluated. IC-50 concentration (concentration which prevented the chemiluminescence by 50%) was calculated.

[3] = target: T1, aromatase (Homo sapiens, UniProt P11511); experiment: Aromatase inhibiting capacity in JEG-3 cells (3H-17β-estradiol formation from 3H-androstenedione); type: cell-based; settings: 4 h incubation, FIG. 1
T1 construct: 800 μl cell suspension (1 million cells); endogenous in cells; host or cells: JEG-3 human choriocarcinoma cells
T1 sequence (P11511 1-503): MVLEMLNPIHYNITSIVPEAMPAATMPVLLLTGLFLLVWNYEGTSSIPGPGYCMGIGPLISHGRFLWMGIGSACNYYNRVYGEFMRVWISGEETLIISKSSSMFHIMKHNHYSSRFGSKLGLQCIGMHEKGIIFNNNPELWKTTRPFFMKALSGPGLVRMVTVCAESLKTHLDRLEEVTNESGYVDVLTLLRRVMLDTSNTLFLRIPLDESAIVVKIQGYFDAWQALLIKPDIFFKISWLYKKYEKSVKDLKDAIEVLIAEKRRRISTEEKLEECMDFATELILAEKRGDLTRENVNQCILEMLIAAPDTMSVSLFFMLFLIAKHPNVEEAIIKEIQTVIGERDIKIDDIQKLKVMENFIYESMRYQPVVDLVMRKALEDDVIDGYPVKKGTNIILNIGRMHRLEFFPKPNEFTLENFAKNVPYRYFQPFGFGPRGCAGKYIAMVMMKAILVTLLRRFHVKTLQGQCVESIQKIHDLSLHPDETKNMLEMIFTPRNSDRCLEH
Method: The effects of HMR and structurally related lignans (enterolactone, enterodiol and 7-hydroxyenterolactone) were studied on formation of ^3H-17β-estradiol from ^3H-andostenedione in JEG-3 cells, human choriocarcinoma cell line. […] Cells were maintained in DMEM containing 10% fetal calf serum (FCS). The incubation mixture contained 50 μl ^3H-androst-4-ene, 3,17-dione (0.5 nM), 50 μl unlabelled androstenedione (0.5 nM), 100 μl test compounds (10 mM) and 800 μl cell suspension (1 million cells). After the incubation for 4 h, unlabelled carriers (androstenedione, testosterone, 17β-estradiol and estrone) were added. The steroids were extracted twice with 3.0 ml dichloromethane. […] The column system consisted of a guard column followed by a C18 150×3.9 mm ID analytical column (Technopak 10 C18 HPLC Technology; Wellington House, Cheshire, UK). The mobile phase was acetonitrile/water (35/65) and the flow rate was 1.2 ml/min. For in-line detection of the radioactive metabolites, the eluent of the HPCL column was continuously mixed with liquid scintillant and then monitored with in-line radioactivity detector.

[4] = tested on: low density lipoprotein (LDL) oxidation; experiment: Inhibition of LDL oxidation (CuCl2-induced, absorbance at 234 nm); type: biochemical; settings: CuCl2, 3 hrs at +37° C.; read-out: Inhibition of LDL oxidation, IC-50
Method: Inhibition of LDL oxidation was estimated as described by Ahotupa et al, 1996. Shortly: LDL was isolated by precipitation with buffered heparin. After resuspendation in phosphate buffer, 20 mM CuCl2 was added and the mixture was incubated for 3 hrs at +37° C. After this, LDL lipids were extracted with chloroform-methanol, dried under nitrogen, redissolved in cyclohexane and analyzed spectrophotometrically at 234 nm. The intensity of absorbance is indicative of LDL oxidation. To test the ability of different compounds to prevent LDL oxidation, the compounds were added to the incubation mixture prior addition of CuCl2. Possible interference of test compounds with the assay procedure was excluded by measuring the absorption at 234 nm before and after the incubation period.

[5] = tested on: MCF-7 cells; settings: Mousavi and Adlercreutz 1992; cited from earlier work
[6] = tested on: mouse uterine weight; settings: Setchell et al. 1981; cited from earlier work
[7] = tested on: uterine growth of immature rats; experiment: Immature rat uterotropic test; type: in vivo; settings: methodological control for non-estrogen-stimulated uterus
Method: The estrogenicity HMR was evaluated by the uterotropic assay in immature rats which was performed as described earlier (Jordan et al. 1977), with the exception of treatment time which was 7 days instead of 3 days in the reference study. The treatment time was longer because of the expected weak estrogenicity of the test compound. The treatment of immature rats with an aromatase inhibitor (MPV-2213 ad), which prevents biosynthesis of estradiol, was used as a methodological control for non-estrogen-stimulated uterus.

[8] = tested on: antiestrogen-sensitive DMBA-induced breast cancer; settings: supplementation of a high-fat diet, rat; Serraino and Thompson, Thompson et al.; cited from earlier work
[9] = tested on: chemically induced aberrant crypts in rat colon; settings: diet supplementation; Serraino and Thompson 1992, Jenab and Thompson 1996; cited from earlier work
[10] = tested on: uterine weight; settings: feeding during pregnancy and lactation to rats; effect not evident at later stages; Tou et al. 1998; cited from earlier work
[11] = lipid peroxidation inhibition test, rat liver microsomes, Table 2, read-out: Antioxidative capacity (t-BuOOH-LP) IC50
[12] = Table 3 comparison with known antioxidants, read-out: Inhibition of lipid peroxidation, IC-50

`O=c1c(O)c(-c2ccc(O)cc2)oc2cc(O)cc(O)c12` [kaempferol, 3,4′,5,7-tetrahydroxy-flavone] showed an IC50 [1, 11] of 0.9 µM.
Compound `Cc1cc(C(C)(C)C)c(O)c(C(C)(C)C)c1` [BHT, Butylated hydroxytoluene] has an IC50 ([2]; value in mM) of over 1 mM and an IC50 [1, 12] of 15.3 µM.
`COc1ccc(O)c(C(C)(C)C)c1` [BHA, Butylated hydroxyanisol] gave an IC50 [2] of 0.015 mM and an IC50 [1, 12] of 1.1 µM.
With `O=c1c(O)c(-c2ccc(O)c(O)c2)oc2cc(O)cc(O)c12` [quercetin, 3,3′,4′,5,7-pentahydroxy-flavone] the IC50 [1, 11] was 0.4 µM.
For `OCC(Cc1cccc(O)c1)C(CO)Cc1cccc(O)c1` (stereo not drawn) [enterodiol, 2,3-bis-(3′-hydroxybenzyl)-butane-1,4-diol], the “Inhibition of aromatization (3H-17β-estradiol formation from 3H-androstenedione)” value (“Inhibition of aromatization” below) [3] was “noninhibitory” and the IC50 [1, 11] was 12.7 µM.
In the case of `Cc1c(C)c2c(c(C)c1O)CCC(C)(C(=O)O)O2` (stereo not drawn) [TROLOX], the IC50 [4] is reported as 2.7 µM, the IC50 [2] is reported as 0.025 mM and the IC50 [1, 12] is reported as 0.02 µM.
`COc1ccc(-c2oc3cc(O)cc(O)c3c(=O)c2O)cc1` [kaempferide, 3,5,7-trihydroxy-4′-methoxy-flavone] gave an IC50 [1, 11] of 0.5 µM.
In the case of `O=C1OCC(Cc2cccc(O)c2)C1Cc1cccc(O)c1` (stereo not drawn) [enterolactone, 2,3-bis-(3′-hydroxybenzyl)-butyrolactone], the “Inhibition of aromatization” value [3] is given as “dose-dependent inhibition”, the “Estrogenic potency in MCF-7 cells” value [5] is given as “weak estrogenic potency” and the “Estrogenic response in mouse uterine weight” value [6] is given as “no estrogenic response”. For the same compound, the IC50 [1, 11] was 15.9 µM.
For `N#Cc1ccc(C(C(O)Cc2ccc(F)cc2)n2cncn2)cc1` (stereo not drawn) [MPV-2213 ad, reference compound], the “Effect on increase of uterine weight” value [7] was “prevented the increase of uterine weight”.
For secoisolariciresinol-diglycoside [SDG], the “Development of DMBA-induced breast cancer” value [8] is given as “prevented the development”, the “Formation of chemically induced aberrant crypts in rat colon” value [9] is given as “inhibited the formation” and the Uterine weight [10] is given as “increased the uterine weight at weaning”.
In the case of `O=C1OC[C@H](Cc2cccc(O)c2)[C@H]1[C@@H](O)c1cccc(O)c1` [7-hydroxyenterolactone], the “Inhibition of aromatization” value [3] is reported as “no inhibitory effects”.
